Measurements published in PubChem BioAssay (NCI).
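Dose response: 5 concentrations. Exposure: 48 h. Format: 96-well plates. Endpoint: linear interpolation; highest concentration if not reached. TGI is the concentration that stops growth completely.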

Columns and labels:
Test in all cases: NCI tumour cell line growth inhibition, 48 h
EKVX NSCLC = test system: EKVX NSCLC
HL-60(TB) leukemia = test system: HL-60(TB) leukemia
NCI-H522 lung = test system: NCI-H522 lung
OVCAR-8 ovarian = test system: OVCAR-8 ovarian
RPMI-8226 leukemia = test system: RPMI-8226 leukemia
SF-268 CNS = test system: SF-268 CNS
SF-539 CNS = test system: SF-539 CNS
SK-MEL-2 melanoma = test system: SK-MEL-2 melanoma
SNB-75 CNS = test system: SNB-75 CNS
SW-620 colon = test system: SW-620 colon
TK-10 renal = test system: TK-10 renal
A498 renal = test system: A498 renal
NCI-H226 lung = test system: NCI-H226 lung
NCI/ADR-RES ovarian = test system: NCI/ADR-RES ovarian
PC-3 prostate = test system: PC-3 prostate
DU-145 prostate = test system: DU-145 prostate
T-47D breast = test system: T-47D breast

SMILES	TGI (EKVX NSCLC) [µM]	TGI (HL-60(TB) leukemia) [µM]	TGI (NCI-H522 lung) [µM]	TGI (OVCAR-8 ovarian) [µM]	TGI (RPMI-8226 leukemia) [µM]	TGI (SF-268 CNS) [µM]	TGI (SF-539 CNS) [µM]	TGI (SK-MEL-2 melanoma) [µM]	TGI (SNB-75 CNS) [µM]	TGI (SW-620 colon) [µM]	TGI (TK-10 renal) [µM]	TGI (A498 renal) [µM]	TGI (NCI-H226 lung) [µM]	TGI (NCI/ADR-RES ovarian) [µM]	TGI (PC-3 prostate) [µM]	TGI (DU-145 prostate) [µM]	TGI (T-47D breast) [µM]
Cc1ccc(S(=O)(=O)c2c(N)c3nccn3c3nc4ccccc4nc23)cc1	> 100	> 100	> 100	> 100	> 100	> 100	> 100	> 100	> 100	> 100	> 100	–	–	–	–	–	–
O=C1NC2OCC(O)C(O1)C2O (centres undefined)	> 100	> 100	> 100	> 100	> 100	> 100	> 100	> 100	> 100	> 100	> 100	> 100	> 100	–	–	–	–
CC1(C)N(OC2CCCCO2)C(c2ccccc2)C(c2ccccc2)=[N+]1[O-] (centres undefined)	> 100	> 100	–	> 100	–	–	> 100	> 100	> 100	> 100	> 100	> 100	> 100	> 100	> 100	–	–
CC1=C2C(=O)C3[C@@H](CCC4=CC(=O)CC[C@@]43C)C2CC[C@]12O[C@@H]1C[C@H](C)CN[C@H]1[C@H]2C (some centres undefined)	> 100	28.2	37.1	> 100	49.7	> 100	> 100	63.2	> 100	> 100	98.7	> 100	> 100	–	–	–	–
COc1cc2c(c(N)c1OC)C(=O)/C(=C/c1cc(C)c(O)c(C)c1)C2	> 100	–	–	> 100	–	> 100	–	> 95.4	–	> 100	> 100	> 90.4	> 100	> 100	> 100	16.9	> 100
Cc1cccc2nc3n(c12)C(=O)c1ccccc1-3	> 100	> 100	> 100	> 100	> 100	> 100	> 100	> 100	> 100	> 100	> 100	–	> 100	> 100	> 100	> 100	–
Cc1ccc(S(=O)(=O)NC(=O)C2(Br)S(=O)(=O)OCCOS2(=O)=O)cc1	> 100	> 100	> 100	> 100	> 100	> 100	> 100	> 100	> 100	–	> 100	> 100	> 100	–	–	–	–
Cc1c(/C=N/NC(=O)c2ccccc2)c(=O)n(-c2ccccc2)n1C	> 100	> 100	> 100	> 100	> 100	> 100	> 100	> 100	> 100	> 100	> 100	> 100	> 100	–	–	–	–
CC(=O)O[C@H]1C(=O)[C@@]2(C)[C@H]([C@H](OC(=O)c3ccccc3)[C@]3(O)C[C@H](OC(=O)[C@H](O)[C@@H](NC(=O)c4ccccc4)C4CCCCC4)C(C)=C1C3(C)C)[C@]1(OC(C)=O)CO[C@@H]1C[C@@H]2O	> 100	< 0.01	0.011	98.8	19.2	> 100	0.0214	> 100	–	> 100	37.4	–	> 100	11.4	2.91	–	93.7
Cc1ccc(C2(C)NC(=S)N(NC(N)=S)C2=S)cc1 (centres undefined)	> 100	> 100	–	> 100	> 100	> 100	> 100	> 100	> 100	> 100	> 100	> 100	> 100	–	–	–	–
C=C1C(=O)OC2C[C@H](C)C3CC(=O)C(C)=C3CC12 (some centres undefined)	32.8	8.42	3.66	39.3	21.9	38.7	35	29	32.6	18.7	30.5	43.7	30.6	–	–	–	–
CC(N)C(=O)c1ccc(O)cc1 (centres undefined)	> 100	> 100	> 100	> 100	> 100	> 100	> 100	> 100	> 100	> 100	> 100	> 100	> 100	–	–	–	–
CC(=O)c1ccc(N2CCN(c3c(O)c4c(c(O)c3Cl)C(=O)C=CC4=O)CC2)cc1	46.7	0.871	–	23	9.43	8.12	30.2	–	26.6	12.7	–	33.7	–	88.5	19.1	31.2	10.4
Nc1ncnc2c1ncn2[C@@H]1C[C@H]1CO	> 100	> 100	> 100	> 100	> 100	–	> 100	> 100	–	> 100	–	> 100	> 100	> 100	> 100	–	> 100
